Data: patent publication US20250221970A1, “Combinations of a B-RAF Inhibitor and an Anti-EGFR Antibody for the Treatment of Cancer” (MapKure, LLC, priority 2022, published 2025)
Values after ≈ are worked out from the molar mass of the structure shown.

What was measured:
CYP3A = experiment: In vitro metabolism of Compound A; format: in vitro ADME; settings: in vitro data
[1] = Hygroscopicity of the solid form (Form F) of Compound A; format: physicochemical; settings: at 80% relative humidity (RH)
[2] = Solubility of the solid form (Form F) of Compound A; format: physicochemical
[3] = Solid form stability of Form F at long-term and accelerated condition; format: physicochemical
[4] = Compound A monotherapy clinical study; format: in vivo, human

SMILES: O=C1CCc2c(Oc3ccc4c(c3)[C@H]3[C@H](NC(=O)Nc5cc(F)c(F)cc5F)[C@H]3O4)ccnc2N1 [Compound A, 1-((1S,1aS,6bS)-5-((7-oxo-5,6,7,8-tetrahydro-1,8-naphthyridin-4-yl)oxy)-1a,6b-dihydro-1H-cyclopropa[b]benzofuran-1-yl)-3-(2,4,5-trifluorophenyl) urea]
- Main metabolic pathway (CYP3A): mainly metabolized by the CYP3A pathway
- Hygroscopicity (classification) [1]: moderately hygroscopic.
- Hygroscopicity: moisture absorption ([1]; actual moisture of 81.5%): 81.5% and a moisture absorption of about 5.425%; the sample was
- solubility ([2]; 0.1N HCl, simulated gastric fluid, in 0.1N HCI): 240 µg/mL (≈ 497 µM)
- solubility ([2]; medium with 0.5% hexadecyl trimethyl ammonium bromide (HTAB), aqueous with cosolvent or surfactant or cyclodextrin, with 0.5% HTAB (hexadecyl trimethyl ammonium bromide)): 310 µg/mL (≈ 643 µM)
- solubility ([2]; medium with 1% sodium lauryl sulphate (SLS), aqueous with cosolvent or surfactant or cyclodextrin, with 1% SLS (sodium lauryl sulphate)): 450 µg/mL (≈ 933 µM)
- solubility ([2]; pH 4.5 buffer, pH 4.5, aqueous buffer): < 5 µg/mL
- solubility ([2]; pH 6.8 buffer, pH 6.8, aqueous buffer): < 5 µg/mL
- Stability: time Form F is in amorphous form ([3]; accelerated condition (40° C./75% RH)): (25° C./60% RH) as well as for 6 months at accelerated condition (40° C./
- Stability: time Form F is in amorphous form ([3]; long-term condition (25° C./60% RH)): Form F is in amorphous form for 24 months at long-term condition
- MTD (maximum tolerated dose) ([4]; Compound A monotherapy, QD): 40 mg
- Increased incidence of ocular AEs ([4]; emerging data from the ongoing Compound A clinical study): no evidence
